Each structure is given as a SMILES string.

Results on 91 compounds are retold here after a melting point compilation (Tetko et al.; mined from patent text by program, amines drawn as free bases though some values may be those of a salt).

One may read the melting point as the temperature, or range, at which the solid turns liquid. Take `O=C1c2ccccc2C(=O)N1CCCCOc1cccc2c1SCCC2`: the melting point is 116 °C.
For `CC(C)=CC(=O)N[C@H]1CC[C@H](CCN2CCN(c3nccc4c3OCC4)CC2)CC1`, the melting point was determined as 184 °C.
On to `CCc1cnc(C2=NC(C)(C(C)C)C(=O)N2)c(C(=O)OC(C)CC)c1` (stereo unspecified), for which the melting point lay within 83 to 87 °C.
For `Nc1ccc2c(c1)OCC21C(=O)N(CC2CCCO2)c2ccccc21` (stereo unspecified), the melting point is 71 to 74 °C.
The value for `CS(=O)(=O)N1Cc2ccccc2C1` was 131 to 132 °C; that for `Cc1ccc(-c2cn3cc(-c4cccc(COc5ccc(Cl)cc5)c4)ccc3n2)cc1` was 182 to 184 °C.
In turn, `COc1cc(C)c(C(=O)c2c(C)c(C)cc(C)c2C)c(OC)c1OC` yielded a melting point of 143 °C.
`CN(C)C(=O)N=NC(=O)N(C)C` yielded a melting point of 121 to 122 °C.
Compound `Cc1cc(N)nc(CCc2nc3cc(-c4ccc(S(=O)(=O)N5CCCCC5)cc4)cnc3[nH]2)c1` showed a melting point of 233 °C.
Compound `NC(=O)c1sc2nccc(N3CCCN(c4ccc(Cl)cc4)CC3)c2c1N` returned a melting point of 92 to 96 °C.
With `Cc1ccc2c(c1)CC(=O)c1cc(C(C)C(=O)O)ccc1S2` (stereo unspecified), the melting point was 157 to 159 °C.
`COc1ccc(C2(C#Cc3ccc(NC(C)=O)cc3)CCC(=O)CC2)cc1OC1CCCC1` gave a melting point of 79 to 80 °C.
The value for `COc1cc2c(cc1OC)C(c1cccc(Cl)c1)=NN=C(C)C2` was 166 to 168 °C; that for `CCSC1=C(c2ccc(O)cc2)C(=O)c2ccc(O)cc21` was 100 to 102 °C.
For `CC1(C)CCC(C)(C)c2cc3cc(-c4ccc(C(=O)O)o4)ccc3cc21`, the melting point fell in the range of 229 to 230 °C.
Take `Cc1ccc(-c2nc(CCCCCCSC(C)(C)C(=O)O)c(C)o2)cc1`: the melting point is 111 °C.
The value for `COCCOC(=O)c1c(S(C)(=O)=O)ccc(C(=O)O)c1C` was 90 to 93 °C.
The value for `Cc1nc2c3c(ccc2n1C)CCC(c1ccccc1)O3` (stereo unspecified) was 161 to 164 °C; that for `CN(C)N=Nc1cc([N+](=O)[O-])sc1C(=O)O` was 184 to 186 °C; that for `OCC[C@H](O)COC(c1ccccc1)(c1ccccc1)c1ccccc1` was 68.8 to 70.9 °C.
The value for `Cn1c(C(=O)O)cc(=O)c2cc(O)c(=O)c(Br)cc21` was > 250 °C; that for `CCN(C(=O)N1CCN(c2cc(C)cc(C)c2)CC1)c1cc2ccccc2nc1OC` was 84 to 86 °C; that for `Nc1nc(-c2ccc(CCCCN3CCN(c4ccccc4)CC3)s2)cs1` was 165 to 167 °C.
The compound `O=c1nc(-c2ccc(C(F)(F)F)cn2)sc2ccccc12` yielded a melting point of 207 °C.
The compound `CN(C)CCCNC1=C2N=c3cc(Cl)ccc3=C2Oc2ccccc2N1C` gave a melting point of 156 to 157 °C.
`Cc1oc(-c2ccccc2)nc1COc1ccc(C(C)CCCC#N)cc1` (stereo unspecified) displayed a melting point of 76 to 77 °C.
The value for `CC(C)(C)C(NC(=O)c1ccc(Cl)cc1)Nc1c(Nc2cnc(F)c(Br)c2)c(=O)c1=O` (stereo unspecified) was 249 to 252 °C; that for `Nc1ncc(CCO)s1` was 125 to 127 °C.
For the compound `O=C1c2cc(Cl)ccc2CN2C(=NO)CCC12` (stereo unspecified), the melting point lay in the range of 130 to 136 °C.
With `CCCS(=O)(=O)c1cc([C@H]2C[C@H](c3cc(OC)c(OC)c(OC)c3)CO2)cc(OC)c1OCc1ccccc1` (relative stereo), the melting point was in the range of 176 to 177 °C.
For the compound `COC(Cc1c(Br)cc(Br)c(N)c1Br)C(=O)O` (stereo unspecified), the melting point lay within 173 to 175 °C.
Take `Clc1ncccc1-c1ccccc1`: the melting point was 48 °C.
As for `CCCCC(=CC(N)C(=O)O)CP(=O)(O)O` (stereo unspecified), the melting point lay in the range of 186 to 187 °C.
The value for `COC(=O)/C=C/c1c(O)cccc1OCCCCC(=O)OC` was 97 to 98 °C; that for `CC(C)(C)CCOc1c(-c2ccc(S(C)(=O)=O)cc2)cnn(CC(F)(F)F)c1=O` was 83 to 85 °C; that for `CCCN(CCC)S(=O)(=O)c1cc(C(=O)CCl)ccc1Cl` was 76 °C.
The value for `O=[N+]([O-])c1ccc(-c2nsc(Cl)n2)cc1` was 143 to 145 °C; that for `CN1CCN(CCO)C1=Nc1ccccc1N1CCOCC1` was 129 to 131 °C; that for `OC(c1ccccc1)C(CN1CC=C(c2ccc(Cl)cc2)CC1)c1ccccc1` (stereo unspecified) was 135 to 137 °C.
Compound `CCOC(=O)c1nc(-c2c(Cl)cc(C(F)(F)F)cc2Cl)[nH]c1C#N` came in with a melting point of 180 to 181 °C.
Turning to `O=C1Cc2ccccc2C=Cc2c(Cl)cccc21`, the melting point fell in the range of 151 to 153 °C.
On to `COCCN1C(=O)C(C)(C)C(=O)Nc2cc(C#N)ccc21`, for which the melting point was 184 to 185 °C.
In turn, `CC(C)(C)OC(=O)NCc1cccc2c1CN(C1CCC(=O)NC1=O)C2=O` (stereo unspecified) registered a melting point of 239 to 241 °C.
For `C=Cc1ccc(S(=O)(=O)On2nnc3ccc(C=C)cc32)cc1`, the melting point fell in the range of 85 to 87 °C.
`Nc1c(F)c(N2CCCC(n3ccnn3)C2)c(F)c2c1c(=O)c(C(=O)O)cn2C1CC1` (stereo unspecified) showed a melting point of 252 to 254 °C.
`CCC(c1ccc(Br)cc1)N(O)C(N)=O` (stereo unspecified) displayed a melting point of 139 to 141 °C.
As to `Fc1ccc(-c2ccn(C3CCCNC3)c2-c2ccncc2)cc1` (stereo unspecified), the melting point fell in the range of 189 to 191 °C.
As for `CC(C(=O)c1ccc(F)cc1)N1CCC(O)(Cc2ccccc2)CC1` (stereo unspecified), the melting point was 120 °C.
Regarding `N#CNc1nc2ccc(Cl)cc2[nH]1`, the melting point was > 300 °C.
Turning to `CC1(C)O[C@@]23CC(=O)CC[C@@]2(C)CC[C@@H]1C3`, the melting point is 60 to 61 °C.
Compound `COC(=O)c1nc(-c2ccc(Cl)cc2F)cc(NC(C)=O)c1O` returned a melting point of 201 to 206 °C.
Regarding `Cc1nc2ccc(S(=O)(=O)n3c(CCCC(=O)O)cc4cc(C(F)(F)F)ccc43)cc2o1`, the melting point was 214 to 220 °C.
Consider `CCOC(=O)N1C=CC(c2c(-c3ccc(F)cc3)nc3c(C)c(C)c(Cl)nn23)C=N1` (stereo unspecified), for which the melting point lay within 159 to 161 °C.
In turn, `Cc1cc(OCc2ccc(-c3ccc(C(F)(F)F)c(F)c3)nc2C)ccc1OC(C)(C)C(=O)O` registered a melting point of 175 to 176 °C.
For the compound `COc1cccc2c1nc(C)n2C`, the melting point lay within 122 to 124 °C.
`CONC(=O)c1cc(C(=O)OC)c(O)c2ncc(Cc3ccc(F)cc3)cc12` registered a melting point of 200 to 201 °C.
The compound `CC(=O)N(C)c1cccc(-c2ccnc3c(C(=O)c4ccccc4)cnn23)c1` showed a melting point of 162 to 164 °C.
`COc1ccc(CNc2ncccc2C(=O)Nc2cccnc2Cl)cc1` returned a melting point of 122 to 124 °C.
The value for `S=C1NCCSc2ccsc21` was 138 to 139 °C; that for `N=C(N)Nc1nc2cc(Cl)cc(Cl)c2[nH]1` was 264 to 265 °C.
As to `Cn1nc(-c2ccc(C(=N)N)cc2)cc(C(=O)N[C@H]2CC[C@H](C(=O)O)CC2)c1=O`, the melting point is 263 to 266 °C.
The value for `Cc1ccc(S(=O)(=O)NC(=O)OCCc2ccc(-n3c(C(C)C)nc4c(C)nc(C)cc43)cc2)cc1` was 213 °C.
`CCOCc1nc2c(N)nc(C)c(C)c2n1CCC1CCN(C(=O)C(C)C)CC1` returned a melting point of 168 to 169 °C.
For the compound `CN(C1CCC(=O)CC1)S(=O)(=O)c1ccc(Nc2nccc(Nc3ccc(F)cc3)n2)cc1`, the melting point was 203 °C.
The value for `COc1ccc(S(=O)(=O)N2c3ccccc3-c3ccccc3C2C)cc1C` (stereo unspecified) was 171 to 173 °C; that for `O=C1c2ccccc2C(=O)N1CC(=O)N1c2ccccc2N(CCc2ccccc2)C(=O)[C@H]2CCC[C@H]21` (relative stereo) was 178 to 179 °C; that for `OC1(CNCc2ccccc2)CCN(CCCc2c[nH]c3ccc(-n4cnnc4)cc23)CC1` was > 60 °C.
In the case of `CC1CCN(CCNc2nn3cnnc3c3c2CCCC3)CC1`, the melting point is 180 to 181 °C.
`CCCn1nc(-c2ccc(OC)cc2)cc(C(=O)NC)c1=O` displayed a melting point of 106 to 107 °C.
Take `NCC(CC(=O)O)c1ccc(Cl)c(Cl)c1` (stereo unspecified): the melting point fell in the range of 202 to 204 °C.
Regarding `COc1cc2cc(OS(=O)(=O)C(F)(F)F)cnc2cc1OC`, the melting point was 82.5 to 84 °C.
`COCCOc1cc(C(F)(F)F)cc(Oc2ccc(CCNc3ncnc4nccnc34)cc2)n1`: the melting point lay in the range of 101 to 104 °C.
Compound `COc1ccc2c(c1)S(=O)(=O)c1nccnc1N2` came in with a melting point of 293 to 294 °C.
`CCCCc1nc(SC)c(C(=O)OCC)n1Cc1cccc(-c2cccc(S(=O)(=O)NC#N)c2)c1`: the melting point turned out to be 112 °C.
For `Cc1nc(-n2cc(CCCc3ccccc3)nn2)sc1C(=O)NCc1ccccc1`, the melting point was in the range of 94 to 97 °C.
The value for `CN(C)C(=O)C(C#N)=C(O)c1ccc(C(F)(F)F)cc1[N+](=O)[O-]` was 104 to 106 °C; that for `O=C(O)CCCC=Cc1nn(-c2ccccc2)c2c1CCC2` was 130 to 131 °C; that for `COc1ccc(C(C)c2cc3c(cc2OC)OCO3)cc1` (stereo unspecified) was 93 to 94 °C.
The compound `COC(=O)c1ccc(N=Cc2ccc(Cl)c(Cl)c2)cn1` returned a melting point of 202 to 207 °C.
The value for `NS(=O)(=O)c1ccc(C(=O)NCCc2ccccc2)cc1` was 243 to 245 °C; that for `O=[N+]([O-])c1c(Br)c(Br)cc2c1OC(F)(F)C(F)(F)O2` was 91 to 92 °C.
For `CC(C(=O)O)c1ccc2c(c1)CC(C(C)C)C2` (stereo unspecified), the melting point was 90 to 91.5 °C.
The value for `CN1CCC(=C2c3ccccc3Sc3ccc(C(=O)O)cc32)CC1` was 319 to 323 °C.
In the case of `O=C(O)CC1CCCC2CC(=O)NC12` (stereo unspecified), the melting point lay in the range of 238 to 240 °C.
The value for `CC(=O)Nc1nc(S(=O)(=O)Cl)n[nH]1` was 177 °C; that for `CCCCC(=O)c1c(-c2ccc3c(Br)c(OCC#N)ccc3c2)oc2ccccc12` was 98 to 100 °C; that for `O=[N+]([O-])c1c(NCC23CCCN2CCC3)cnc2ccccc12` was 95 to 99 °C.
The value for `O=[N+]([O-])c1cnn2c1-c1ccccc1NC2c1ccccc1O` (stereo unspecified) was 235 to 237 °C; that for `O=C(O)c1cc(Br)cc2c1NCCS2(=O)=O` was 250 to 251 °C.
`O=C(O)c1ccc2c(c1)CCN2Cc1cccc([N+](=O)[O-])c1` returned a melting point of 259 to 262 °C.
The compound `CCOC(=O)/C=C/C=C(c1cccc([N+](=O)[O-])c1)c1cccc([N+](=O)[O-])c1` came in with a melting point of 105 to 106 °C.
